Test results from patent US20230416412A1, “PREVENTION OR MITIGATION OF T-CELL ENGAGING AGENT-RELATED ADVERSE EFFECTS” (Hoffmann-La Roche Inc., priority 2022, published 2023).

Tests used:
OCI-LY18 tumor cells = experiment: Anti-tumor efficacy of CD20-TCB in DLBCL tumor model in humanized NSG mice; assay type: in vivo; conditions: 20 mg/kg NLRP3 inhibitor i.p.
Description: FIGS. 4A-4B. Effect of the NLRP3 inhibitor on CD20-TCB-mediated anti-tumor efficacy. OCI-Ly18-bearing humanized NSG mice were pre-treated with 30 mg/kg obinutuzumab (Gazyva® pre-treatment, Gpt, dotted black arrow) and then treated with escalating doses of CD20-TCB (black arrows, 0.5 mg/kg on the 1st treatment, 1 mg/kg on the 2nd treatment and 2 mg/kg on the 3rd treatment) by intravenous (i.v.) injections. 20 mg/kg NLRP3 inhibitor (grey arrows) was given by intraperitoneal injections 1 hr before, 4 hrs and 24 hrs after the 1st CD20-TCB therapy as well as 1 hr before and 4 hrs after the 2nd CD20-TCB therapy. FIG. 4A. Tumor growth inhibition curves, means−/+SD. Tumor volumes were calculated from caliper measurements conducted 2 or 3 times per week. FIG. 4B. […] Tumors were digested and the counts of CD8+ T cells were measured by flow cytometry.
(§1) The effects of the NLRP3 inhibitor on anti-tumor efficacy and cytokine release mediated by CD20-TCB in vivo were evaluated using a diffused large B cell lymphoma (DLBCL) tumor model in humanized NSG mice. […]
To assess the effects of the NLRP3 inhibitor on tumor growth, tumor volumes were calculated from caliper measurements twice or three times per week. Furthermore, the counts of CD8+ T cells were measured by flow cytometry in tumors collected 24 hrs after the third treatment with CD20-TCB.

[1] = tested on: cytokine release in whole blood; experiment: Whole blood assay: CD20-TCB-mediated cytokine release, serum cytokines by Luminex; assay type: cell-based, human
Description: (§2) FIGS. 1A-1N. Effect of the NLRP3 inhibitor on CD20-TCB-mediated T cell activation, B cell depletion and cytokine release. Fresh whole blood from a healthy donor (donor 1) was incubated with escalating doses of CD20-TCB and 10 μM NLRP3 inhibitor. At 24 hrs, blood from technical replicates was pooled and lysed. FIG. 1A. The killing of CD19+ B cells was measured by flow cytometry. FIG. 1B and FIG. 1C. The expression of CD25 on CD4+ (1B) and CD8+ (1C) T cells was measured by flow cytometry. At 24 hrs, serum from technical replicates were collected and pooled. FIG. 1D-FIG. 1N. The levels of IFN-γ (1D), IL-2 (1E), IL-1β (1F), IL-1Ra (1G), TNF-α (1H), IP-10 (1I), IL-6 (1J), IL-8 (1K), MCP-1 (1L), MIP-1α (1M) and MIP-1β (1N) were measured by Luminex.
(§3) FIGS. 2A-2N. Effect of the NLRP3 inhibitor on CD20-TCB-mediated T cell activation, B cell depletion and cytokine release. Fresh whole blood from a healthy donor (donor 2) was incubated with escalating doses of CD20-TCB and 10 μM NLRP3 inhibitor. At 24 hrs, blood from technical replicates was pooled and lysed. FIG. 2A. The killing of CD19+ B cells was measured by flow cytometry. FIG. 2B and FIG. 2C. The expression of CD25 on CD4+ (FIG. 2B) and CD8+ (FIG. 2C) T cells was measured by flow cytometry. At 24 hrs, serum from technical replicates were collected and pooled. FIG. 2D-FIG. 2N. The levels of IFN-γ (2D), IL-2 (2E), IL-1β (2F), IL-1Ra (2G), TNF-α (2H), IP-10 (2I), IL-6 (2J), IL-8 (2K), MCP-1 (2L), MIP-1α (2M) and MIP-1β (2N) were measured by Luminex.
(§4) FIGS. 3A-3N. Effect of the NLRP3 inhibitor on CD20-TCB-mediated T cell activation, B cell depletion and cytokine release. Fresh whole blood from a healthy donor (donor 3) was incubated with escalating doses of CD20-TCB and […] NLRP3 inhibitor. At 24 hrs, blood from technical replicates was pooled and lysed. FIG. 3A. The killing of CD19+ B cells was measured by flow cytometry. FIG. 3B and FIG. 3C. The expression of CD25 on CD4+ (3B) and CD8+ (3C) T cells was measured by flow cytometry. At 24 hrs, serum from technical replicates were collected and pooled. FIG. 3D-FIG. 3N. The levels of IFN-γ (3D), IL-2 (3E), IL-1β (3F), IL-1Ra (3G), TNF-α (3H), IP-10 (3I), IL-6 (3J), IL-8 (3K), MCP-1 (3L), MIP-1α (3M) and MIP-1β (3N) were measured by Luminex.
(§5) To assess the effects of the NLRP3 inhibitor on TCB-mediated target cell killing and T cell activation, we conducted whole blood assays using fresh whole blood from 3 healthy donors incubated with escalating concentrations of CD20-TCB (SEQ ID NOs 4-23) in combination with 10 μM of the NLRP3 inhibitor (MCC950, Sigma-Aldrich). At 24 hrs, the killing of CD19+ B cells together with the expression of CD25 on CD4+ and CD8+ T cells was measured in whole blood by flow cytometry.
The levels of cytokines were measured by Luminex in the serum of whole blood treated with CD20-TCB in the presence and in the absence of the NLRP3 inhibitor to determine the effects of the NLRP3 inhibitor on cytokine release.

cytokine release = experiment: CD20-TCB-mediated cytokine release in vivo, serum cytokines by Luminex; parameters: species or system humanized NSG mice; conditions: 3 hrs after first CD20-TCB treatment
Description: FIGS. 5A-5E. Effect of the NLRP3 inhibitor on IL-2, IFN-γ, TNF-α, IL-1β, and IL-6 induced by CD20-TCB. Treatment was performed as described in FIG. 4. Blood was collected by tail-vein bleedings 3 hrs after the 1st CD20-TCB therapy. The levels of FIG. 5A. IL-2, FIG. 5B. IFN-γ, FIG. 5C. TNF-α, FIG. 5D. IL-1β, and FIG. 5E. IL-6 were measured in the serum by Luminex. Means of n=5 mice+/−SEM.
FIG. 6. Heatmap representing the effects of the NLRP3 inhibitor on CD20-TCB mediated cytokine release. Treatment was performed as described in FIG. 4. Blood was collected by tail-vein bleeding 3 hrs after the 1st CD20-TCB therapy. The levels of IFN-γ, IL-2, TNF-α, IP-10, IL-1β, IL-1Ra, IL-6, IL-8, MCP-1, MIP-1α and MIP-1β were measured in serum by Luminex for n=5 mice per group.
The effects of the NLRP3 inhibitor on anti-tumor efficacy and cytokine release mediated by CD20-TCB in vivo were evaluated using a diffused large B cell lymphoma (DLBCL) tumor model in humanized NSG mice. Briefly, humanized NSG mice were engrafted with OCI-LY18 tumor cells. When the tumor volume reached 200 mm^3, mice were randomized in groups of 14 based on their tumor size. They were then pre-treated with 30 mg/kg obinutuzumab (Gazyva® pre-treatment, GpT) 7 days before being treated with CD20-TCB to deplete peripheral B cells. The NLRP3 inhibitor was given 1 hr before and 4 and 24 hrs after the first CD20-TCB treatment as well as 1 hr before and 4 hrs after the second CD20-TCB treatment.
The levels of cytokines were measured in serum collected by tail-vein bleedings 3 hrs after the first treatment with CD20-TCB to determine the effects of the NLRP3 inhibitor on CD20-TCB-mediated cytokine release in vivo. In line with previous in vitro findings, the NLRP3 inhibitor retained IL-2, IFN-γ, TNF-α while reducing IL-6, IL-8 and IL-1β levels induced by CD20-TCB (FIGS. 5A-E, FIG. 6). In addition, the NLRP3 inhibitor modified the cytokine profile induced by CD20-TCB treatment, as indicated by the heat map showing the levels of IFN-γ, IL-2, TNF-α, […], IL-1Ra, IL-6, IL-8, MCP-1, MIP-1α and […] which were measured 3 hrs after the first treatment with CD20-TCB (FIG. 6). Last, we measured the body weight of each animal before and after the first treatment with CD20-TCB to calculate the body weight change. […] (FIG. 7).

CD19+ B cells = experiment: Whole blood assay: CD20-TCB-induced killing of CD19+ B cells (flow cytometry); assay type: cell-based, human; conditions: 10 μM NLRP3 inhibitor, escalating CD20-TCB, fresh whole blood of 3 healthy donors, 24 hrs
Description: as §2
FIGS. 2A-2N. Effect of the NLRP3 inhibitor on CD20-TCB-mediated T cell activation, B cell depletion and cytokine release. […] The killing of CD19+ B cells was measured by flow cytometry. […] The expression of CD25 on CD4+ (FIG. 2B) and CD8+ (FIG. 2C) T cells was measured by flow cytometry. […] The levels of IFN-γ (2D), IL-2 (2E), IL-1β (2F), IL-1Ra (2G), TNF-α (2H), IP-10 (2I), IL-6 (2J), IL-8 (2K), MCP-1 (2L), MIP-1α (2M) and MIP-1β (2N) were measured by Luminex.
FIGS. 3A-3N. […] The killing of CD19+ B cells was measured by flow cytometry. […] The expression of CD25 on CD4+ (3B) and CD8+ (3C) T cells was measured by flow cytometry. […]

CD4+ and CD8+ T cells = experiment: Whole blood assay: CD20-TCB-induced T cell activation, CD25 expression (flow cytometry); assay type: cell-based, human; conditions: 10 μM NLRP3 inhibitor, 24 hrs
Description: as §2, §3, §4, §5

[2] = Body weight change after first CD20-TCB therapy; assay type: in vivo, humanized NSG mice; conditions: before and after the first CD20-TCB treatment, 20 mg/kg NLRP3 inhibitor i.p.
Description: FIG. 7. Effect of the NLRP3 inhibitor on body weight loss induced by the first CD20-TCB therapy. Treatment was performed as described in FIG. 4. The body weight of each animal was measured before and after the first therapy with CD20-TCB to calculate body weight change [%]. Means+/−SEM.
as §1, with “mice. Briefly, humanized NSG mice were engrafted with OCI-LY18 tumor cells. When the tumor volume reached 200 mm^3, mice were randomized in groups of 14 based on their tumor size.” for “mice.”
The levels of cytokines were measured in serum collected by tail-vein bleedings 3 hrs after the first treatment with CD20-TCB to determine the effects of the NLRP3 inhibitor on CD20-TCB-mediated cytokine release in vivo. […] In addition, the NLRP3 inhibitor modified the cytokine profile induced by CD20-TCB treatment, as indicated by the heat map showing the levels of IFN-γ, IL-2, TNF-α, […], IL-1Ra, IL-6, IL-8, MCP-1, MIP-1α and […] which were measured 3 hrs after the first treatment with CD20-TCB (FIG. 6). Last, we measured the body weight of each animal before and after the first treatment with CD20-TCB to calculate the body weight change. […]

[3] = 10 μM NLRP3 inhibitor with CD20-TCB, whole blood serum, 24 hrs, 3 donors
[4] = 10 μM NLRP3 inhibitor with CD20-TCB, whole blood serum, 24 hrs, in all 3 donors

SMILES: CC(C)(O)c1coc(S(=O)(=O)NC(=O)Nc2c3c(cc4c2CCC4)CCC3)c1 [NLRP3 inhibitor, MCC950]
- anti-tumor efficacy mediated by CD20-TCB (tumor volume) (OCI-LY18 tumor cells; obinutuzumab pre-treatment, CD20-TCB 0.5, 1, 2 mg/kg i.v. weekly): did not interfere
- CD8+ T cell infiltration in tumors (OCI-LY18 tumor cells; 24 hrs after the third CD20-TCB treatment, flow cytometry): did not interfere
- level of IFN-γ [1, 3]: did not influence
- level of IL-1Ra [1, 3]: did not influence
- level of IL-2 [1, 3]: did not influence
- level of IP-10 [1, 3]: did not influence
- level of MCP-1 [1, 3]: did not influence
- level of MIP-1α [1, 3]: did not influence
- level of MIP-1β [1, 3]: did not influence
- level of TNF-α [1, 3]: did not influence
- level of IL-6 ([1]; 10 μM NLRP3 inhibitor with CD20-TCB, whole blood serum, 24 hrs, in 2 out of 3 donors): reduced
- level of IL-1β [1, 4]: reduced
- level of IL-8 [1, 4]: reduced
- TCB-induced cytokine release ([1]; general statement): reduce
- serum IFN-γ level induced by CD20-TCB (cytokine release; 20 mg/kg NLRP3 inhibitor i.p.): retained
- serum IL-1β level induced by CD20-TCB (cytokine release; 20 mg/kg NLRP3 inhibitor i.p.): reducing
- serum IL-2 level induced by CD20-TCB (cytokine release; 20 mg/kg NLRP3 inhibitor i.p.): retained
- serum IL-6 level induced by CD20-TCB (cytokine release; 20 mg/kg NLRP3 inhibitor i.p.): reducing
- serum IL-8 level induced by CD20-TCB (cytokine release; 20 mg/kg NLRP3 inhibitor i.p.): reducing
- serum TNF-α level induced by CD20-TCB (cytokine release; 20 mg/kg NLRP3 inhibitor i.p.): retained
- cytokine profile induced by CD20-TCB treatment (heat map) (cytokine release; 11 cytokines in serum): modified
- CD20-TCB-induced B cell depletion (percentage of CD19+ B cells among CD45+ cells) (CD19+ B cells): minimally interfered
- CD20-TCB-induced B cell depletion (percentage of CD19+ B cells among CD45+ cells) (CD19+ B cells; listed as MCC950): retaining
- T cell activation induced by CD20-TCB (CD4+ and CD8+ T cells): did not interfere
- T cell activation induced by CD20-TCB (CD4+ and CD8+ T cells; listed as MCC950): retaining
- expression of the activation marker CD25 on CD4+ T cells (CD4+ and CD8+ T cells; escalating CD20-TCB, 3 donors): did not prevent
- expression of the activation marker CD25 on CD8+ T cells (CD4+ and CD8+ T cells; escalating CD20-TCB, 3 donors): did not prevent
- body weight loss induced by CD20-TCB [2]: prevented body weight loss
